Tests used:
ICR mice [1] = test: Xylene-induced mouse ear swelling test (Effect Example 4); type: in vivo; design: key to Inhibition rate (%): Symbol “—” indicates that the data obtained at this dose was not significantly different from the vehicle control group; conditions: 50 uL xylene two hours after administration; for inhibition in vivo at 3 mg/kg: Mus musculus, po, 2 h, 3 mg/kg intragastric, read-out: Inhibition rate (%)
Experimental: (§1) ICR mice, 18-22 g, half of them being male and the other half being female, provided by the Department of Laboratory Animals, Peking University (License No.: SCXK (Beijing) 2016-0010).
ICR mice were randomly grouped, 8 mice per group, half of them being male and the other half being female. Vehicle control group (double-distilled water) and groups for samples to be tested (the compounds and doses thereof were shown in Table 4). All drugs were dissolved in double-distilled water immediately before administration, and given by intragastric administration at predetermined doses. Two hours after administration, 50 uL of xylene was smeared evenly on the inner and outer sides of right ear of mouse. After 30 minutes, the left and right ears of mouse were cut, and circular ear pieces of the same size were punched at the same position on the left and right ears, and weighed. The ear swelling inhibition rate of compound in mice was calculated according to the formula.
Inhibition rate %=(degree of ear swelling in vehicle control group−degree of ear swelling in test group)/degree of ear swelling in vehicle control group×100

ICR mice [2] = test: Acetic acid writhing test; type: in vivo; conditions: Mus musculus, po, 2 h, 0.6% acetic acid ip two hours after administration, read-out: Inhibition rate (%); for inhibition in vivo at 3 mg/kg: 3 mg/kg intragastric
Experimental: as §1
ICR mice, half of them being male and the other half being female, were randomly grouped, 8 mice per group. Vehicle control group (double-distilled water), ibuprofen control group, and groups for samples to be tested (the compounds and doses thereof were shown in Table 2) were set. All drugs were dissolved in double-distilled water before administration, and given by intragastric administration at predetermined doses. Two hours after the administration, the mice were intraperitoneally injected with 0.6% acetic acid solution (10 ml/kg, ip), and the number of times the mice writhed (abdomen depressed, buttock raised, body elongated) was recorded within 5-20 minutes. The inhibition rate % of compound on writhing pain in mice was calculated according to the following formula.
Inhibition rate %=(number of writhing times in vehicle control group−number of writhing times in test group)/number of writhing times in vehicle control group×100

ICR mice [3] = test: Formalin experiment; type: in vivo; conditions: Mus musculus, po, 2 h, 2.5% formalin two hours after administration, phase II 10-60 minutes, read-out: Phase II pain inhibition rate (%); for inhibition in vivo at 9 mg/kg: 9 mg/kg intragastric
Experimental: as §1
ICR mice, half of them being male and the other half being female, were randomly grouped, 8 mice per group. Vehicle control group (double-distilled water) and groups for samples to be tested were set, in which the compounds and doses thereof were shown in Table 3. All drugs were dissolved in double-distilled water before administration, and given by intragastric administration at predetermined doses. Two hours after administration, the mice were injected with 20 ul of 2.5% formalin solution in the right hind foot, and the time (s) of licking or biting foot was recorded as an index of pain response, in which 0-5 minutes was phase I, 10-60 minutes was phase II, and the total observation time was 60 minutes. The phase II pain inhibition rate of compound in mice was calculated according to the following formula:
Inhibition rate %=(time of licking or biting foot in vehicle control group−time of licking or biting foot in test group)/time of licking or biting foot in vehicle control group×100

ICR mice [4] = test: Hot plate test; type: in vivo; conditions: Mus musculus, po; 3 mg/kg intragastric, latency 2.0 hours after administration, hot plate 55° C.; read-out: PTE %
Experimental: as §1
The temperature of hot plate was adjusted to 55° C., and the responses of mouse such as licking hind feet and jumping were used as the observation indexes. The time from the placement of mice on copper plate to the appearance of the above responses was defined as latency time. The latency time was measured for three times 30 minutes before administration, and the average value thereof was used as basic threshold, or baseline latency (BL). The animals with a latency time greater than 15 s and less than 5 s were removed, and the residual mice were randomly grouped, 8 animals per group.
Vehicle control group (double-distilled water) and groups for samples to be tested (the compounds and doses thereof were shown in Table 1) were set. All drugs were dissolved in […] before administration, and given by intragastric administration. The latency time was measured 2.0 hours after administration. Percentage of Pain Threshold Elevated Rate (PTE %) of compound on mice was calculated according to the following formula:
PTE %=(latency time of test group−latency time of vehicle control group)/latency time of vehicle control group×100

CCI rats [5] = test: Mechanical stimulation paw withdrawal threshold (MWT) in CCI rats; type: in vivo, SD rats; conditions: 100 mg/kg i.g. daily; for inhibition rate (absolute %): PTE % vs vehicle; for MWT: mean±SEM; for inhibition rate (relative %): relative to sham minus vehicle
Experimental: (§2) SD rats, body weight 180 g-220 g, half of them being male and the other half being female, provided by the Department of Laboratory Animals, Peking University. The rats were raised in a standard environment with temperature of 22±0.5° C. and relative humidity of 55±5%, 12 h/12 h light-dark cycle, and fed with standard feed.
(§3) Rat was anesthetized with pentobarbital sodium (60 mg/kg, i.p.), the right hind limb was surgically shaved, fixed in the prone position, a longitudinal incision was made along the middle of the right hind limb of the rat, the muscle was bluntly separated, the sciatic nerve was exposed, and the sciatic nerve bifurcate proximal end was loosely ligated with 4-0 silk suture for 4 times, with an interval of about 1 mm each time, in which the degree of tightness was suitable when it was observed that the right hind leg was slightly shaken. After ligation, the muscle and skin were sutured in sequence. For the sham-operated group, the sciatic nerve was only exposed, but not ligated. The success of modeling was determined by observing whether the hind limb of the rat's operation side was closed, slightly valgus and often vacated, and by measuring the mechanical stimulation paw withdrawal threshold and the thermal stimulation paw withdrawal latency of the rat.
(§4) Before surgery, the mechanical stimulation paw withdrawal thresholds and the thermal stimulation paw withdrawal latencies in the rats were determined, and the rats were grouped as: sham operation group (sham), vehicle group (double-distilled water, i.g.), DXL-A-22 group (2 mg/kg, i.g.), DXL-A-24 group (1 mg/kg, i.g.), and Gabapentin group (100 mg/kg, i.g.). All compounds and drugs were dissolved in double-distilled water, and given by intragastric administration at 1 mL/100 g. From the first day after surgery, the administration was carried out every day, and the mechanical stimulation paw withdrawal threshold and the thermal stimulation paw withdrawal latency were measured 2 hours after administration.
The mechanical stimulation paw withdrawal threshold (MWT) of rats was detected by von Frey electronic pain tester. The measurement was carried out on the days 5, 7 and 14 after operation. The rats were placed in a transparent plexiglass box (whose bottom was a wire mesh with a gap of 1 mm^2) to adapt to the environment for 30 min. After the rats had no exploration action, the von Frey electronic pain tester was used to stimulate the middle position of paw at the operation side of the rat, and the maximum force caused by rat paw withdrawal response (i.e., MWT) was recorded. The inhibition rate of the compound was calculated according to the following formula:
Absolute increase rate (i.e., PTE %): PTE %=(MWT of test group−MWT of vehicle group)/MWT of vehicle group×100 (1)
Relative increase rate: Inhibition rate %=(MWT of test group−MWT of vehicle group)/(MWT of Sham operation group−MWT of vehicle group)×100 (2)

CCI rats [6] = test: Thermal stimulation paw withdrawal latency (PWL) in CCI rats; type: in vivo, SD rats; conditions: 100 mg/kg i.g. daily; for PWL: hot plate 50.5° C., cut-off 14s, mean±SEM
Experimental: as §2, §3, §4
The thermal stimulation paw withdrawal latency (PWL) was measured by a hot plate method. The measurement was carried out on the days 5, 7 and 14 after operation. The temperature of the hot plate was 50.5° C. Timing started when the rat was placed on the hot plate, and stopped when the shaking and foot licking responses of the rat appeared, and this time was the PWL of the rat. The hot plate cut-off time was 14s, and the percentage of analgesia (i.e., MPE %) was calculated according to formula (3):
MPE %=(PWL of test group−PWL of vehicle group)/(cut-off time−PWL of vehicle group)×100 (3)

[7] = Day 5 after operation, section 3.1
[8] = Day 5 after operation, section 3.3
[9] = Day 7 after operation, section 3.1
[10] = Day 7 after operation, section 3.3
[11] = Day 14 after operation, section 3.1
[12] = Day 14 after operation, section 3.3
[13] = Day 5 after operation, section 3.2
[14] = Day 5 after operation, section 3.4
[15] = Day 7 after operation, section 3.2
[16] = Day 7 after operation, section 3.4
[17] = Day 14 after operation, section 3.2
[18] = Day 14 after operation, section 3.4

For `Clc1cccc(N2CC[N+]3(CCCC3)CC2)c1` [DXL-A-05, 8-(3-chlorophenyl)-5,8-diazaspiro[4.5]decan-5-ium bromide], the inhibition in vivo at 3 mg/kg (ICR mice [1]) was 30.8%, the inhibition in vivo at 3 mg/kg (ICR mice [2]) was 22.5% and the inhibition in vivo at 9 mg/kg (ICR mice [3]) was 32.9%. The change in vivo at 3 mg/kg (ICR mice [4]) was 19.5%.

`FC(F)(F)c1cccc(N2CC[N+]3(CCCC3)CC2)c1` [DXL-A-06, 8-(3-(trifluoromethyl)phenyl)-5,8-diazaspiro[4.5]decan-5-ium bromide] was tested, and the inhibition in vivo at 3 mg/kg (ICR mice [1]) was 45.9%, the inhibition in vivo at 3 mg/kg (ICR mice [2]) was 14% and the inhibition in vivo at 9 mg/kg (ICR mice [3]) was 17.6%. The change in vivo at 3 mg/kg (ICR mice [4]) was 16.7%.

Molecule `Cc1cccc(N2CC[N+]3(CCCC3)CC2)c1` [DXL-A-10, 8-(m-tolyl)-5,8-diazaspiro[4.5]decan-5-ium bromide] has an inhibition in vivo at 3 mg/kg (ICR mice [1]) of 27.4%, an inhibition in vivo at 3 mg/kg (ICR mice [2]) of 29.8% and an inhibition in vivo at 9 mg/kg (ICR mice [3]) of 46.9%. The change in vivo at 3 mg/kg (ICR mice [4]) was 11.2%.

With `Fc1ccccc1N1CC[N+]2(CCCC2)CC1.[Br-]` [DXL-A-18, 8-(2-fluorophenyl)-5,8-diazaspiro[4.5]decan-5-ium bromide] the “Inhibition rate (%)” value (ICR mice [1]; 1 mg/kg intragastric) was “—”, the inhibition in vivo at 1 mg/kg (ICR mice [2]; 1 mg/kg intragastric) was 21.7% and the inhibition in vivo at 1 mg/kg (ICR mice [3]; 1 mg/kg intragastric) was 22%.

With `NCC1(CC(=O)O)CCCCC1` [Gabapentin, reference compound] the “inhibition rate (absolute %)” value (CCI rats [5]; [7]) was 99.36%, the “inhibition rate (absolute %)” value (CCI rats [5]; [8]) was 87.98% and the MWT (CCI rats [5]; [7]) was 21.73 ± 0.49**/. The MWT (CCI rats [5]; [8]) was 21.73 ± 0.49**/, the “inhibition rate (relative %)” value (CCI rats [5]; [7]) was 40.08% and the “inhibition rate (relative %)” value (CCI rats [5]; [8]) was 41.04%. For the same molecule, the “inhibition rate (absolute %)” value (CCI rats [5]; [9]) was 128.67%, the “inhibition rate (absolute %)” value (CCI rats [5]; [10]) was 123.00% and the MWT (CCI rats [5]; [9]) was 23.37 ± 1.34**/. For the same molecule, the MWT (CCI rats [5]; [10]) was 23.37 ± 1.34**/, the “inhibition rate (relative %)” value (CCI rats [5]; [9]) was 47.56% and the “inhibition rate (relative %)” value (CCI rats [5]; [10]) was 49.94%. For the same molecule, the “inhibition rate (absolute %)” value (CCI rats [5]; [11]) was 101.42%, the “inhibition rate (absolute %)” value (CCI rats [5]; [12]) was 83.36% and the MWT (CCI rats [5]; [11]) was 21.27 ± 0.82**/. The MWT (CCI rats [5]; [12]) was 21.27 ± 0.82**/, the “inhibition rate (relative %)” value (CCI rats [5]; [11]) was 38.46% and the “inhibition rate (relative %)” value (CCI rats [5]; [12]) was 36.91%. For the same molecule, the PWL (CCI rats [6]; [13]) was 11.37 ± 0.32**/, the PWL (CCI rats [6]; [14]) was 11.37 ± 0.32**/ and the “MPE(%)” value (CCI rats [6]; [13]) was 59.72%. The “MPE(%)” value (CCI rats [6]; [14]) was 54.02%, the PWL (CCI rats [6]; [15]) was 11.76 ± 0.34**/ and the PWL (CCI rats [6]; [16]) was 11.76 ± 0.34**/. For the same molecule, the “MPE(%)” value (CCI rats [6]; [15]) was 66.16%, the “MPE(%)” value (CCI rats [6]; [16]) was 62.48% and the PWL (CCI rats [6]; [17]) was 11.88 ± 0.40**/. The PWL (CCI rats [6]; [18]) was 11.88 ± 0.40**/, the “MPE(%)” value (CCI rats [6]; [17]) was 66.51% and the “MPE(%)” value (CCI rats [6]; [18]) was 67.88%.

Molecule `CC(C)Cc1ccc(C(C)C(=O)O)cc1` (stereo not shown) [Ibuprofen table, Ibuprofen, reference compound] has an inhibition in vivo at 200 mg/kg (ICR mice [2]; 200 mg/kg intragastric) of 49.1%.
